Source: patent US8481708B2, “snRNA gene-like transcriptional units and uses thereof” (Università degli Studi di Genova, priority 2005, dated 2013)

System: RNA Polymerase III
Assay: Promoter activity transfection assay with Pol III inhibitor ML-60218
Assay type: cell-based, human
Conditions: after 24 hours of cell treatment with ML-60218 (20 μM); hairpin constructs with novel promoters
Description: For transient transfections Hela cells (grown in DMEM supplemented with 10% FCS), were grown in multiwell Petri dishes 16 hours before transfection. The expression [21A, 21A(1), 21A(2), 21A(3)] constructs containing the regions of interest cloned in the pTopo vectors (Invitrogen) were introduced into the cells using the Fugene 6 transfection reagent (Roche) according to the manufacturer's instructions. A plasmid Expressing Luciferase was used as control of transfection efficiency (to which all the results were normalized). 24, 48 and 72 hours after transfection cells were harvested and firely luciferase activity was measured by Dual-Luciferase reporter assay system (Promega). manufacturer's protocol.

SMILES: Cc1c(-c2cc(NS(=O)(=O)c3ccccc3Cl)n(C)n2)sc2ccc(Cl)cc12 [ML-60218]
- luciferase signal: increased
